# Experimental data: paper PMC11480511 (Scientific Reports, 2024)
# Like-named read-outs stand apart in the source and are kept apart here.
# Tests used:
# [1] = tested on: CCRF-CEM; test: NCI single-dose growth inhibition screen; assay type: cell-based; conditions: Homo sapiens; Leukemia CCRF-CEM; single dose 10^−5 M
# [2] = tested on: K-562; test: NCI single-dose growth inhibition screen; assay type: cell-based; conditions: Homo sapiens, K562; Leukemia K-562; single dose 10^−5 M
# [3] = tested on: MOLT-4; test: NCI single-dose growth inhibition screen; assay type: cell-based; conditions: Homo sapiens; Leukemia MOLT-4; single dose 10^−5 M
# [4] = tested on: RPMI-8226; test: NCI single-dose growth inhibition screen; assay type: cell-based; conditions: Homo sapiens; Leukemia RPMI-8226; single dose 10^−5 M
# [5] = tested on: SR; test: NCI single-dose growth inhibition screen; assay type: cell-based; conditions: Homo sapiens; Leukemia SR; single dose 10^−5 M
# [6] = tested on: EKVX; test: NCI single-dose growth inhibition screen; assay type: cell-based; conditions: Homo sapiens; Non-Small Cell Lung Cancer EKVX; single dose 10^−5 M
# [7] = tested on: NCI-H23; test: NCI single-dose growth inhibition screen; assay type: cell-based; conditions: Homo sapiens; Non-Small Cell Lung Cancer NCI-H23; single dose 10^−5 M
# [8] = tested on: NCI-H322M; test: NCI single-dose growth inhibition screen; assay type: cell-based; conditions: Homo sapiens; Non-Small Cell Lung Cancer NCI-H322M; single dose 10^−5 M
# [9] = tested on: NCI-H460; test: NCI single-dose growth inhibition screen; assay type: cell-based; conditions: Homo sapiens; Non-Small Cell Lung Cancer NCI-H460; single dose 10^−5 M
# [10] = tested on: NCI-H522; test: NCI single-dose growth inhibition screen; assay type: cell-based; conditions: Homo sapiens; Non-Small Cell Lung Cancer NCI-H522; single dose 10^−5 M
# [11] = tested on: SF-268; test: NCI single-dose growth inhibition screen; assay type: cell-based; conditions: Homo sapiens; CNS Cancer SF-268; single dose 10^−5 M
# [12] = tested on: SNB-19; test: NCI single-dose growth inhibition screen; assay type: cell-based; conditions: Homo sapiens; CNS Cancer SNB-19; single dose 10^−5 M
# [13] = tested on: SNB-75; test: NCI single-dose growth inhibition screen; assay type: cell-based, human; conditions: Homo sapiens, SNB-75, CNS Cancer SNB-75; single dose 10^−5 M
# [14] = tested on: LOX IMVI; test: NCI single-dose growth inhibition screen; assay type: cell-based, human; conditions: Homo sapiens, LOX IMVI, Melanoma LOX IMVI; single dose 10^−5 M
# [15] = tested on: MALME-3 M; test: NCI single-dose growth inhibition screen; assay type: cell-based; conditions: Homo sapiens; Melanoma MALME-3 M; single dose 10^−5 M
# [16] = tested on: MDA-MB-435; test: NCI single-dose growth inhibition screen; assay type: cell-based; conditions: Homo sapiens; Melanoma MDA-MB-435; single dose 10^−5 M
# [17] = tested on: SK-MEL-28; test: NCI single-dose growth inhibition screen; assay type: cell-based; conditions: Homo sapiens; Melanoma SK-MEL-28; single dose 10^−5 M
# [18] = tested on: SK-MEL-5; test: NCI single-dose growth inhibition screen; assay type: cell-based, human; conditions: Homo sapiens, SK-MEL-5, Melanoma SK-MEL-5; single dose 10^−5 M
# [19] = tested on: UACC-62; test: NCI single-dose growth inhibition screen; assay type: cell-based; conditions: Homo sapiens; Melanoma UACC-62; single dose 10^−5 M
# [20] = tested on: OVCAR-4; test: NCI single-dose growth inhibition screen; assay type: cell-based; conditions: Homo sapiens; Ovarian Cancer OVCAR-4; single dose 10^−5 M
# [21] = tested on: OVCAR-8; test: NCI single-dose growth inhibition screen; assay type: cell-based; conditions: Homo sapiens; Ovarian Cancer OVCAR-8; single dose 10^−5 M
# [22] = tested on: A498; test: NCI single-dose growth inhibition screen; assay type: cell-based, human; conditions: Homo sapiens, A498, Renal Cancer A498; single dose 10^−5 M
# [23] = tested on: ACHN; test: NCI single-dose growth inhibition screen; assay type: cell-based; conditions: Homo sapiens; Renal Cancer ACHN; single dose 10^−5 M
# [24] = tested on: CAKI-1; test: NCI single-dose growth inhibition screen; assay type: cell-based; conditions: Homo sapiens; Renal Cancer CAKI-1; single dose 10^−5 M
# [25] = tested on: MDA-MB231; test: NCI single-dose growth inhibition screen; assay type: cell-based; conditions: Homo sapiens, MDA-MB-231; Breast Cancer MDA-MB231; single dose 10^−5 M
# [26] = tested on: BT-549; test: NCI single-dose growth inhibition screen; assay type: cell-based; conditions: Homo sapiens; Breast Cancer BT-549; single dose 10^−5 M
# [27] = tested on: T-47D; test: NCI single-dose growth inhibition screen; assay type: cell-based; conditions: Homo sapiens, T47D; Breast Cancer T-47D; single dose 10^−5 M
# [28] = tested on: MDA-MB-468; test: NCI single-dose growth inhibition screen; assay type: cell-based; conditions: Homo sapiens; Breast Cancer MDA-MB-468; single dose 10^−5 M
# [29] = tested on: PC-3; test: NCI single-dose growth inhibition screen; assay type: cell-based; conditions: Homo sapiens; Prostate Cancer PC-3; single dose 10^−5 M
# [30] = tested on: DU-145; test: NCI single-dose growth inhibition screen; assay type: cell-based; conditions: Homo sapiens; Prostate Cancer DU-145; single dose 10^−5 M
# [31] = tested on: S. aureus ATCC 6538; test: Antibacterial screening, agar cup diffusion method; assay type: cell-based; conditions: Staphylococcus aureus, ATCC6538; Gram + ve strain; read-out: Minimum inhibitory concentrations (MIC, µM) S. aureus ATCC 6538
# [32] = tested on: K. pneumoniae ATCC 10,031; test: Antibacterial screening, agar cup diffusion method; assay type: cell-based; conditions: read-out: Minimum inhibitory concentrations (MIC, µM) K. pneumoniae ATCC 10,031
# Procedure: (§1) Anti-bacterial activity of the recently synthesized compounds 3a-k was evaluated at AUMC (Assiut University Mycological Centre), Assiut, Egypt. Assays were done against Gram-negative strains of K. pneumoniae (ATCC 100310, E. coli (ATCC 25922), Pseudomonas aeruginosa (ATCC 27853) and the Gram-positive S. aureus (ATCC 6538) strain utilizing standard agar cup diffusion method. The isolates from the four bacterial species examined were kept in TSB (Trypticase Soya Broth, Becton and Dickinson) with 10% glycerol at -70 °C and then subcultured on TSA (Trypticase Soya Agar, Becton and Dickinson) and TSB for 24 h at 37 °C former to inoculation. Bacterial isolates were then plated on sterile petri plates with 1 × 10^8 CFU/mL (0.5 McFarland turbidity) and 20 mL of Mueller Hinton Agar media (Oxoid) was then loaded. To ensure that the microorganisms were evenly dispersed, the plates were gently rotated before being left to harden on a level surface. Four equally spaced spherical-shaped wells (10 mm diameter) were painstakingly drilled using a sterilized cork bore after media solidification. All tested compounds under test underwent two-fold serial dilutions in a sequential manner. Three replications of 100 µL of each concentration were added to a well using a micropipette. Plates were then incubated for 24-hour at 37 °C. The average of the inhibition zones was then calculated. To determine the MICs, the natural logarithm of each diluted test substance’s concentration was plotted against the average area of the related inhibition zone. Following that, a regression line was created and the intercept on the ‘ln concentration” axis was determined, and the antilogarithm was calculated to indicate the MIC value[34],[63].
# [33] = tested on: P. aeruginosa ATCC 27,853; test: Antibacterial screening, agar cup diffusion method; assay type: cell-based; conditions: Pseudomonas aeruginosa, ATCC27; Gram –ve strain; read-out: Minimum inhibitory concentrations (MIC, µM) P. aeruginosa ATCC 27,853
# Procedure: as §1
# [34] = tested on: human melanoma LOX IMVI; test: cells
# [35] = tested on: A498 renal cancer cell line; test: cells; conditions: Homo sapiens, A498
# [36] = Klebsiella pneumoniae, ATCC10, Gram –ve strain
compound,measurement,setting,value
"O=C(O)c1cn(C2CC2)c2cc(N3CCN(C(=O)CCCN4C(=O)SC(=Cc5cccc([N+](=O)[O-])c5)C4=O)CC3)c(F)cc2c1=O [3d, 1-cyclopropyl-6-fluoro-7-[4-[4-[5-[(3-nitrophenyl)methylene]-2,4-dioxo-thiazolidin-3-yl]butanoyl]piperazin-1-yl]-4-oxoquinoline-3-carboxylic acid]",inhibition at 10 µM,[1],< 0%
same,inhibition at 10 µM,[2],< 0%
same,inhibition at 10 µM,[3],< 0%
same,inhibition at 10 µM,[4],< 0%
same,inhibition at 10 µM,[5],< 0%
same,inhibition at 10 µM,[6],2.3%
same,inhibition at 10 µM,[7],7.9%
same,inhibition at 10 µM,[8],6.8%
same,inhibition at 10 µM,[9],< 0%
same,inhibition at 10 µM,[10],20.7%
same,inhibition at 10 µM,[11],2.4%
same,inhibition at 10 µM,[12],1%
same,inhibition at 10 µM,[13],18.2%
same,inhibition at 10 µM,[14],26.5%
same,inhibition at 10 µM,[15],9.8%
same,inhibition at 10 µM,[16],< 0%
same,inhibition at 10 µM,[17],< 0%
same,inhibition at 10 µM,[18],2.3%
same,inhibition at 10 µM,[19],10.3%
same,inhibition at 10 µM,[20],2.6%
same,inhibition at 10 µM,[21],3.1%
same,inhibition at 10 µM,[22],8.9%
same,inhibition at 10 µM,[23],4.2%
same,inhibition at 10 µM,[24],5%
same,inhibition at 10 µM,[25],8%
same,inhibition at 10 µM,[26],3%
same,inhibition at 10 µM,[27],< 0%
same,inhibition at 10 µM,[28],0.5%
same,inhibition at 10 µM,[29],< 0%
same,inhibition at 10 µM,[30],< 0%
same,MIC,[31],> 20 µM
same,MIC,[32]; Gram –ve strain,0.13 µM
same,MIC,[32]; [36],0.13 to 0.8 µM
same,MIC,[33],0.87 µM
same,melting point,,263 °C
Cc1ccc(/C=C2\SC(=O)N(CCCC(=O)N3CCN(c4cc5c(cc4F)c(=O)c(C(=O)O)cn5C4CC4)CC3)C2=O)cc1 [3c],inhibition at 10 µM,[1],2.9%
same,inhibition at 10 µM,[2],< 0%
same,inhibition at 10 µM,[3],< 0%
same,inhibition at 10 µM,[5],< 0%
same,inhibition at 10 µM,[6],2.4%
same,inhibition at 10 µM,[7],1.8%
same,inhibition at 10 µM,[8],< 0%
same,inhibition at 10 µM,[9],< 0%
same,inhibition at 10 µM,[10],1.7%
same,inhibition at 10 µM,[11],3.7%
same,inhibition at 10 µM,[12],< 0%
same,inhibition at 10 µM,[14],3.5%
same,inhibition at 10 µM,[15],< 0%
same,inhibition at 10 µM,[16],< 0%
same,inhibition at 10 µM,[17],< 0%
same,inhibition at 10 µM,[18],3.8%
same,inhibition at 10 µM,[19],4.2%
same,inhibition at 10 µM,[20],< 0%
same,inhibition at 10 µM,[21],< 0%
same,inhibition at 10 µM,[22],5.3%
same,inhibition at 10 µM,[23],2.3%
same,inhibition at 10 µM,[24],1.5%
same,inhibition at 10 µM,[25],< 0%
same,inhibition at 10 µM,[27],< 0%
same,inhibition at 10 µM,[28],< 0%
same,inhibition at 10 µM,[29],1.1%
same,inhibition at 10 µM,[30],< 0%
same,MIC,[31],> 20 µM
same,MIC,[33],> 20 µM
same,melting point,,233 to 234 °C
"COc1ccc(C=C2SC(=O)N(CCCC(=O)N3CCN(c4cc5c(cc4F)c(=O)c(C(=O)O)cn5C4CC4)CC3)C2=O)cc1 [3e, 1-cyclopropyl-6-fluoro-7-[4-[4-[5-[(4-methoxyphenyl)methylene]-2,4-dioxo-thiazolidin-3-yl]butanoyl]piperazin-1-yl]-4-oxoquinoline-3-carboxylic acid]",inhibition at 10 µM,[1],< 0%
same,inhibition at 10 µM,[2],< 0%
same,inhibition at 10 µM,[3],< 0%
same,inhibition at 10 µM,[4],< 0%
same,inhibition at 10 µM,[5],4.3%
same,inhibition at 10 µM,[6],0.4%
same,inhibition at 10 µM,[7],2.6%
same,inhibition at 10 µM,[8],6%
same,inhibition at 10 µM,[9],0%
same,inhibition at 10 µM,[10],25.7%
same,inhibition at 10 µM,[11],2.3%
same,inhibition at 10 µM,[12],3.8%
same,inhibition at 10 µM,[13],12.6%
same,inhibition at 10 µM,[14],42.5%
same,inhibition at 10 µM,[15],2.9%
same,inhibition at 10 µM,[16],< 0%
same,inhibition at 10 µM,[17],< 0%
same,inhibition at 10 µM,[18],3.9%
same,inhibition at 10 µM,[19],7%
same,inhibition at 10 µM,[20],< 0%
same,inhibition at 10 µM,[21],5.3%
same,inhibition at 10 µM,[22],32%
same,inhibition at 10 µM,[23],1.2%
same,inhibition at 10 µM,[24],5.5%
same,inhibition at 10 µM,[25],12.4%
same,inhibition at 10 µM,[26],10.3%
same,inhibition at 10 µM,[27],0.6%
same,inhibition at 10 µM,[28],< 0%
same,inhibition at 10 µM,[29],< 0%
same,inhibition at 10 µM,[30],< 0%
same,MIC,[31],> 20 µM
same,MIC,[32]; Gram –ve strain,0.19 µM
same,MIC,[32]; [36],0.13 to 0.8 µM
same,MIC,[33],> 20 µM
same,viability at 0.4 µM,[34],76.7%
same,viability at 1.6 µM,[34],67.7%
same,viability at 25 µM,[34],52%
same,viability at 100 µM,[34],47.4%
same,viability at 0.4 µM,[35],102%
same,viability at 1.6 µM,[35],91.7%
same,viability at 25 µM,[35],69.4%
same,viability at 100 µM,[35],56.2%
O=C(O)c1cn(C2CC2)c2cc(N3CCN(C(=O)CCCN4C(=O)S/C(=C\c5ccc(Cl)cc5)C4=O)CC3)c(F)cc2c1=O [3 h],inhibition at 10 µM,[1],< 0%
same,inhibition at 10 µM,[2],0.7%
same,inhibition at 10 µM,[3],< 0%
same,inhibition at 10 µM,[4],< 0%
same,inhibition at 10 µM,[5],10.7%
same,inhibition at 10 µM,[6],2.1%
same,inhibition at 10 µM,[7],5.3%
same,inhibition at 10 µM,[8],11.8%
same,inhibition at 10 µM,[9],0%
same,inhibition at 10 µM,[10],18.3%
same,inhibition at 10 µM,[11],2.3%
same,inhibition at 10 µM,[12],0%
same,inhibition at 10 µM,[13],15.5%
same,inhibition at 10 µM,[14],38.2%
same,inhibition at 10 µM,[15],10.9%
same,inhibition at 10 µM,[16],< 0%
same,inhibition at 10 µM,[17],< 0%
same,inhibition at 10 µM,[18],1.1%
same,inhibition at 10 µM,[19],6.2%
same,inhibition at 10 µM,[20],5.1%
same,inhibition at 10 µM,[21],5.3%
same,inhibition at 10 µM,[22],7.7%
same,inhibition at 10 µM,[23],0.7%
same,inhibition at 10 µM,[24],4.4%
same,inhibition at 10 µM,[25],13.7%
same,inhibition at 10 µM,[26],3.8%
same,inhibition at 10 µM,[27],2%
same,inhibition at 10 µM,[28],< 0%
same,inhibition at 10 µM,[29],< 0%
same,inhibition at 10 µM,[30],< 0%
same,MIC,[31],> 20 µM
same,MIC,[33],> 20 µM
same,melting point,,273 °C
